For 13 compounds, TGI results are on record in PubChem BioAssay (NCI).

Test systems include HOP-62 NSCLC; PC-3 prostate; HCT-15 colon; KM12 colon; A549 NSCLC; HCT-116 colon; MDA-N; HOP-92 NSCLC; NCI/ADR-RES ovarian; SN12C renal; CCRF-CEM leukemia.
Common to all, as to assay: inhibition of tumour cell growth, NCI panel, 48 h

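These data come from cells grown in 96-well plates and exposed to compound for 48 hours at five concentrations. TGI: concentration producing complete growth inhibition.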

Turning to `COc1cc(I)c2c3c1OC1C34CCN(C)C(C2)C4=CC(I)C1(OC)OC` (stereo unspecified), the TGI in the experiment on HOP-62 NSCLC is 46.3 µM; in the experiment on PC-3 prostate, 82.1 µM; in the experiment on HCT-15 colon, 63.4 µM; in the experiment on KM12 colon, 40 µM; in the experiment on A549 NSCLC, > 100 µM; in the experiment on HCT-116 colon it was 60.6 µM. The TGI with MDA-N was 48 µM; with HOP-92 NSCLC, 45.6 µM; in the experiment with NCI/ADR-RES ovarian, 68 µM; in the experiment on SN12C renal, 31.9 µM; in the experiment on CCRF-CEM leukemia, 26.8 µM.

As for `CCOc1cc(-c2nc3ccccn3c2/N=C/c2cc(Br)ccc2O)ccc1O`, the TGI with HOP-62 NSCLC was 44.8 µM; with PC-3 prostate it was 73.3 µM; in the experiment with HCT-15 colon it was > 100 µM; in the experiment with A549 NSCLC, > 100 µM; in the experiment on HCT-116 colon, > 100 µM; in the experiment with MDA-N, > 100 µM. For the same compound, the TGI in the experiment with HOP-92 NSCLC is 64.5 µM; with NCI/ADR-RES ovarian it was 93 µM; with SN12C renal, > 100 µM; in the experiment on CCRF-CEM leukemia, > 100 µM.

Regarding `NC(=O)C(=CNC(=S)c1ccncc1)C(N)=O`, the TGI in the experiment on HOP-62 NSCLC, in the experiment on PC-3 prostate, in the experiment on HCT-15 colon, with KM12 colon, in the experiment with A549 NSCLC and in the experiment with HCT-116 colon was > 100 µM throughout. In addition, the TGI with MDA-N, in the experiment with HOP-92 NSCLC, in the experiment with NCI/ADR-RES ovarian, with SN12C renal and in the experiment with CCRF-CEM leukemia was > 100 µM in each case.

Regarding `Brc1ccc2c(-c3csc(-c4c[nH]c5cc(Br)ccc45)n3)c[nH]c2c1`, the TGI in the experiment with HOP-62 NSCLC was > 100 µM; in the experiment on PC-3 prostate, > 79.5 µM; in the experiment on HCT-15 colon, > 89.9 µM; in the experiment with KM12 colon, 25.1 µM; in the experiment on A549 NSCLC, > 50.7 µM; in the experiment on HCT-116 colon it was 32.3 µM. Further, the TGI in the experiment on MDA-N is 13.4 µM; in the experiment with HOP-92 NSCLC it was > 100 µM; in the experiment on NCI/ADR-RES ovarian, > 87 µM; with SN12C renal it was > 100 µM; in the experiment on CCRF-CEM leukemia it was > 64.1 µM.

On to `CCOC(=O)C(CC#Cc1ccc(C#CCC(NC(C)=O)C(=O)OCC)cc1)NC(C)=O` (stereo unspecified), for which the TGI in the experiment on HOP-62 NSCLC, with PC-3 prostate, with HCT-15 colon, with KM12 colon, in the experiment with A549 NSCLC and in the experiment on HCT-116 colon was > 100 µM in each case. Also, the TGI in the experiment with MDA-N, in the experiment with NCI/ADR-RES ovarian, with SN12C renal and in the experiment on CCRF-CEM leukemia was > 100 µM throughout.

As to `C=C1CC(C)(c2ccc(Nc3nc4ccccc4c4occc34)cc2)OC1=O` (stereo unspecified), the TGI in the experiment with HOP-62 NSCLC amounted to 34 µM; in the experiment on PC-3 prostate it was 20 µM; with HCT-15 colon, 4.73 µM; in the experiment with KM12 colon, 34 µM; with A549 NSCLC, 23.7 µM; in the experiment on MDA-N it was 12.7 µM. In addition, the TGI in the experiment on HOP-92 NSCLC was found to be 12.6 µM; in the experiment on NCI/ADR-RES ovarian, 20.1 µM; in the experiment on SN12C renal it was 4.91 µM; in the experiment on CCRF-CEM leukemia, 3.76 µM.

In the case of `O=C1C=C(c2ccccc2)O/C1=C/C(=O)c1ccc(Cl)cc1`, the TGI with HOP-62 NSCLC was determined as 85.3 µM; with PC-3 prostate it was 27.3 µM; with HCT-15 colon, 39.5 µM; in the experiment with KM12 colon, 36.7 µM; with HCT-116 colon, 30.6 µM; with MDA-N, 30.2 µM. The TGI was 44.9 µM in the experiment on HOP-92 NSCLC, 50 µM with NCI/ADR-RES ovarian, 29.9 µM in the experiment on SN12C renal and > 100 µM with CCRF-CEM leukemia.

As for `CCNC(=O)C1CCCN1C(=O)C(CCCN=C(N)N)NC(=O)C(CC(C)C)NC(=O)C(Cc1c[nH]c2ccccc12)NC(=O)C(Cc1ccc(O)cc1)NC(=O)C(CO)NC(=O)C(Cc1c[nH]c2ccccc12)NC(=O)C(Cc1cnc[nH]1)NC(=O)C1CCC(=O)N1` (stereo unspecified), the TGI with HOP-62 NSCLC, in the experiment with PC-3 prostate, with HCT-15 colon, in the experiment with KM12 colon, with A549 NSCLC and in the experiment with MDA-N was > 100 µM throughout. Further, the TGI in the experiment on HOP-92 NSCLC, with NCI/ADR-RES ovarian, in the experiment with SN12C renal and with CCRF-CEM leukemia was > 100 µM throughout.

Consider `O=C(Cc1ccc([N+](=O)[O-])cc1)OCC#CCOC(=O)Cc1ccc([N+](=O)[O-])cc1`, for which the TGI in the experiment with PC-3 prostate, in the experiment on HCT-15 colon, in the experiment with KM12 colon, in the experiment on A549 NSCLC, in the experiment with MDA-N and in the experiment with HOP-92 NSCLC was > 10 µM in each case. The TGI in the experiment with NCI/ADR-RES ovarian, in the experiment with SN12C renal and in the experiment on CCRF-CEM leukemia was > 10 µM each time.

For the compound `O=c1oc2cc(O)ccc2c(O)c1C(c1ccc(C(c2c(O)c3ccc(O)cc3oc2=O)c2c(O)c3ccc(O)cc3oc2=O)cc1)c1c(O)c2ccc(O)cc2oc1=O`, the TGI with HOP-62 NSCLC, with PC-3 prostate, in the experiment on HCT-15 colon, in the experiment with A549 NSCLC, in the experiment on HCT-116 colon and in the experiment on MDA-N was > 100 µM throughout. Further, the TGI in the experiment with HOP-92 NSCLC, in the experiment with NCI/ADR-RES ovarian, in the experiment on SN12C renal and in the experiment with CCRF-CEM leukemia was > 100 µM in each case.

Consider `NC1CNC(=O)c2c(Cl)sc(Cl)c21` (stereo unspecified), for which the TGI with HOP-62 NSCLC, with PC-3 prostate, in the experiment on HCT-15 colon, with KM12 colon, in the experiment with A549 NSCLC and in the experiment with HCT-116 colon was > 100 µM throughout. In addition, the TGI with MDA-N, in the experiment with HOP-92 NSCLC, in the experiment with NCI/ADR-RES ovarian and with SN12C renal was > 100 µM throughout.

With `CC1CC(=O)Nc2nc3ccccc3n21` (stereo unspecified), the TGI in the experiment with HOP-62 NSCLC, with PC-3 prostate, with HCT-15 colon, in the experiment with KM12 colon, with A549 NSCLC and with HCT-116 colon was > 100 µM each time. For the same compound, the TGI in the experiment on MDA-N, with HOP-92 NSCLC, in the experiment on NCI/ADR-RES ovarian and in the experiment with CCRF-CEM leukemia was > 100 µM in each case.

With `O=C(N/N=C/c1ccco1)c1cc(I)cc(I)c1O`, the TGI in the experiment with PC-3 prostate, in the experiment with HCT-15 colon, in the experiment on A549 NSCLC, in the experiment on HCT-116 colon, in the experiment with MDA-N and in the experiment on HOP-92 NSCLC was > 50 µM in each case. The TGI was > 50 µM in the experiment with NCI/ADR-RES ovarian, 38.7 µM in the experiment with SN12C renal and > 50 µM with CCRF-CEM leukemia.
